# Experimental data from patent US6756374B2, “Diaminothiazoles having antiproliferative activity” (Hoffmann-La Roche Inc., priority 2001, dated 2004).
# pIC50: −log10 of the molar value.
# Experiments:
# human cyclin D1-CDK4 = human cyclin D1-CDK4 (Homo sapiens, UniProt P11802); assay: FlashPlate kinase assay, cyclin D1-CDK4; assay type: biochemical; settings: Rb protein substrate, 1 μM ATP
# Procedure: (§1) To determine inhibition of Cdk4, Cdk2 and Cdk1 activity, kinase assays were conducted using FlashPlate™ assays (NEN™-Life Science Products). FlashPlate assays were performed using recombinant human cyclin B-CDK1, human cyclin E-CDK2 or human cyclin D1-CDK4 complexes. GST-cyclinE (GST-cycE), CDK2, GST-cyclinB (GST-cycB), CDK1, GST-CDK4 and cyclin D1 (cycD1) cDNA clones in baculovirus vectors were provided by Dr. W. Harper at the Baylor College of Medicine, Houston, Tex.
# (§2) The expression of the 62Kd protein was under the control of an IPTG inducible promoter in an M15 E. coli strain. Cells were lysed by sonication and purification was carried out by binding lysates at pH 8.0 to a Ni-chelated agarose column pretreated with 1 mM imidazole. The resin was then washed several times with incrementally decreasing pH buffers to pH 6.0, and eluted with 500 mM imidazole. Eluted protein was dialysed against 20 mM HEPES pH 7.5, 30% glycerol, 200 mM NaCl, and 1 mM DTT. Purified Rb fusion protein stocks were quantitated for protein concentration, aliquoted, and stored at −70° C.
# (§3) For all three kinase assays reported herein, 96-well FlashPlates were coated with Rb protein at 10 μg/ml, using 100 μl per well. Plates were incubated at 4° C. overnight or at room temperature for 3 hours on a shaker. To control for nonspecific phosphorylation, one row of wells was coated with 100 μl/well coating buffer (20 mM HEPES, 0.2 M NaCl). Plates were then washed twice with wash buffer (0.01% Tween 20 in phosphate-buffered saline). Compounds to be tested (“test compounds”) were added to the wells at 5×final concentration. Reactions were initiated by immediate addition of 40 μl reaction mix (25 mM HEPES, 20 mM MgCl2, 0.002% Tween 20, 2 mM DTT, 1 μM ATP, 4 nM ^33P-ATP) and a sufficient amount of enzyme to give counts that were at least 10-fold above background. Plates were incubated at room temperature on a shaker for 30 minutes. Plates were washed four times with the wash buffer, sealed, and counted on the TopCount scintillation counter (Packard Instrument Co., Downers Grove, Ill.]. The percent inhibition of Rb phosphorylation, which is a measure of the inhibition of CDK activity, was determined according to the following formula: [formula]
# (§4) where “test compound” refers to the average counts per minute of the test duplicates, “nonspecific” refers to the average counts per minute when no CyclinD/Cdk4, etc., was added, and “total” refers to the average counts per minute when no compound was added.
# human cyclin B-CDK1 = human cyclin B-CDK1 (Homo sapiens, UniProt P06493); assay: FlashPlate kinase assay, cyclin B-CDK1; assay type: biochemical; settings: Rb protein substrate, 1 μM ATP
# Chain of human cyclin B-CDK1 (P06493 whole entry): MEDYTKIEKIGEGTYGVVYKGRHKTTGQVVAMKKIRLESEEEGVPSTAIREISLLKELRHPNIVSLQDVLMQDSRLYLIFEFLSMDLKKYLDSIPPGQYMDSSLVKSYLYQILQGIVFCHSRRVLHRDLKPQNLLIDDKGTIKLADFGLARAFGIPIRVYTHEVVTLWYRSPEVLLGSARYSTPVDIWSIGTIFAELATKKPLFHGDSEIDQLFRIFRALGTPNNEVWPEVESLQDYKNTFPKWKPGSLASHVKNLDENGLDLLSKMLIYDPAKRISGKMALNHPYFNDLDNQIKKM
# Chain of human cyclin B-CDK1 (P14635 whole entry partner): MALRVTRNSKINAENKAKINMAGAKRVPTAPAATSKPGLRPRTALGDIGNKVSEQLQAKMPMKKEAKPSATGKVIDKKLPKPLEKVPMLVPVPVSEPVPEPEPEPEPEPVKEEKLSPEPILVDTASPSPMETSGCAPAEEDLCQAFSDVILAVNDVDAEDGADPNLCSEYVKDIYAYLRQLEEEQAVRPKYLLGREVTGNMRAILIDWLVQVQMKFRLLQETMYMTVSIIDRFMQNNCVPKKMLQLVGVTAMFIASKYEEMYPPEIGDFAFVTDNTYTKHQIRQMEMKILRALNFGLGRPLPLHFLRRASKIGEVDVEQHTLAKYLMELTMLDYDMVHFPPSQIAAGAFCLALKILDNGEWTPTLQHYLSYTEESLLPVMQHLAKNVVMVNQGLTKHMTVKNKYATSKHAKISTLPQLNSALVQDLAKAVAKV
# Procedure: as §1, §2, §3, §4
# HCT116 = assay: Tetrazolium dye (MTT) proliferation assay; assay type: cell-based; settings: Homo sapiens, HCT-116; HCT116 colorectal carcinoma cell line
# Procedure: The cell line used was HCT116, a colorectal carcinoma cell line obtained from the American Type Cell Culture Collection (ATCC;
# Rockville, Md.). The cells were grown in McCoy's 5A medium supplemented with 10% FCS and L-glutamine.
# Cells were plated at the appropriate seeding density to give logarithmic growth over the course of the assay in a 96-well tissue culture plate. Plates were incubated overnight at 37° C. in a humidified incubator with 5% CO2. The next day, test compounds were serially diluted to four times the final concentration in the appropriate medium containing 1.2% DMSO. One-fourth final volume of each dilution was added in duplicate to the plates containing cells. The same volume of 1.2% DMSO in medium was added to a row of “control wells” such that the final concentration of DMSO in each well was 0.3%. Wells to which no cells were added served as the “blank.” Wells to which no inhibitor was added served as “no inhibitor control.” The plates were) returned to the incubator, and at set time points (determined by their growth curves) plates were analyzed as described below.
# 3-(4,5-dimethylthiazole-2-yl)-2,5-diphenyl-2H-tetrazolium bromide (thiazolyl blue; MTT; Sigma) was added to each well to yield a final concentration of 1 mg/ml. Plates were returned to the incubator for 2.5-3 hours at 37° C. The MTT-containing medium was removed and the resulting formazan metabolite was solubilized in 100% ethanol with shaking for 15 minutes at room temperature. Absorbance readings were taken in a microtiter plate reader (Dynatech and Molecular Devices plate readers were used interchangeably) at a wavelength of 570 nm with a 650 nm reference. Percent inhibition (% INH) is calculated by subtracting the absorbance of the blank well from all wells, then subtracting the ratio of the average absorbance of each test duplicate (SAVE) by the average of the controls (CAVE) from 1.00. The final number is then multiplied by 100 (% INH=(1.00−SAVE/CAVE)×100).
# human cyclin E-CDK2 = human cyclin E-CDK2 (Homo sapiens, UniProt P24941); assay: FlashPlate kinase assay, cyclin E-CDK2; assay type: biochemical; settings: Rb protein substrate, 1 μM ATP
# Procedure: as §1, §2, §3, §4
# Chain of human cyclin D1-CDK4 (P11802 whole entry): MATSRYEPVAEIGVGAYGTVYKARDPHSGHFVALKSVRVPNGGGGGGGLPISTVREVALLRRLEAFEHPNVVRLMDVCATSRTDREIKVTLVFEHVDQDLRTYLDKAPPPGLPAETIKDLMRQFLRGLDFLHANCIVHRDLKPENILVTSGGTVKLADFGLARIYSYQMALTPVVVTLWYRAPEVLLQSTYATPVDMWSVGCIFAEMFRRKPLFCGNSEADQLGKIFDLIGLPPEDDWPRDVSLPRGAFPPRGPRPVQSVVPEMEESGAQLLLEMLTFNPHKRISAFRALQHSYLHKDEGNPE
# Chain of human cyclin D1-CDK4 (P24385 whole entry partner): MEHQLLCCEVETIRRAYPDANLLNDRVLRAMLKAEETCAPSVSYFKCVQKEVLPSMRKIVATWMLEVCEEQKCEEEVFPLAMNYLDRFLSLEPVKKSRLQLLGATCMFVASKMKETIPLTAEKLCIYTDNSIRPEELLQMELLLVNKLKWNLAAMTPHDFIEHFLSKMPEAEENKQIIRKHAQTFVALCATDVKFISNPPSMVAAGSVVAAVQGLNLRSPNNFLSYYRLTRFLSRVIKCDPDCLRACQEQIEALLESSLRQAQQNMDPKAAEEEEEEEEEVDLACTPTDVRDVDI
SMILES,pIC50 (human cyclin D1-CDK4),pIC50 (human cyclin B-CDK1),pIC50 (HCT116),pIC50 (human cyclin E-CDK2)
"CN1CCN(c2ccc(Nc3nc(N)c(C(=O)c4ccc(N5CCCC(CO)C5)c([N+](=O)[O-])c4)s3)cc2)CC1 (racemic) [Example 61, [4-Amino-2-[[4-(4-methyl-1-piperazinyl)phenyl]amino]-5-thiazolyl][3-nitro-4-[3-(hydroxymethyl)-1-piperidinyl]phenyl]methanone]",7.92,5.46,5.41,5.64
"CN1CCN(c2ccc(Nc3nc(N)c(C(=O)c4ccc5c(c4)OCCO5)s3)cc2)CC1 [Example 24, [4-Amino-2-[[4-(4-methyl-1-piperazinyl)phenyl]amino]-5-thiazolyl](2,3-dihydro-1,4-benzodioxin-6-yl)methanone]",7.70,5.60,5.41,5.37
"CN1CCN(c2ccc(Nc3nc(N)c(C(=O)c4ccc(N5CCOCC5)cc4)s3)cc2)CC1 [Example 28, [4-Amino-2-[[4-(4-methyl-1-piperazinyl)phenyl]amino]-5-thiazolyl][4-(4-morpholinyl)phenyl]methanone]",7.77,5.04,5.02,4.65
"CN1CCN(c2ccc(Nc3nc(N)c(C(=O)c4cccc([N+](=O)[O-])c4)s3)cc2)CC1 [Example 31, [4-Amino-2-[[4-(4-methyl-1-piperazinyl)phenyl]amino]-5-thiazolyl](3-nitrophenyl)methanone]",7.59,6.30,5.39,5.64
"COc1ccc(C(=O)c2sc(Nc3ccc(N4CCN(C)CC4)cc3)nc2N)cc1 [Example 32, [4-Amino-2-[[4-(4-methyl-1-piperazinyl)phenyl]amino]-5-thiazolyl](4-methoxyphenyl)methanone]",7.10,5.41,5.25,5.02
"CN1CCN(c2ccc(Nc3nc(N)c(C(=O)c4ccc5oc6ccccc6c5c4)s3)cc2)CC1 [Example 34, [4-Amino-2-[[4-(4-methyl-1-piperazinyl)phenyl]amino]-5-thiazolyl](2-dibenzofuranyl)methanone]",7.31,4.93,5.42,5.21
"CN1CCN(c2ccc(Nc3nc(N)c(C(=O)c4ccc5c(c4)OCO5)s3)cc2F)CC1 [Example 38, [4-Amino-2-[[3-fluoro-4-(4-methyl-1-piperazinyl)phenyl]amino]-5-thiazolyl](1,3-benzodioxol-5-yl)methanone]",8.22,5.70,5.72,5.59
"COc1cccc(C(=O)c2sc(Nc3ccc(N4CCN(C)CC4)c(F)c3)nc2N)c1 [Example 40, [4-Amino-2-[[3-fluoro-4-(4-methyl-1-piperazinyl)phenyl]amino]-5-thiazolyl](3-methoxyphenyl)methanone]",7.85,5.89,5.52,5.51

# Next, values leading:
pIC50 (human cyclin D1-CDK4),pIC50 (human cyclin B-CDK1),pIC50 (HCT116),pIC50 (human cyclin E-CDK2),SMILES
7.36,5.00,5.36,5.23,"CC1CCCN1c1ccc(C(=O)c2sc(Nc3ccc(N4CCN(C)CC4)cc3)nc2N)cc1[N+](=O)[O-] (racemic) [Example 62, [4-Amino-2-[[4-(4-methyl-1-piperazinyl)phenyl]amino]-5-thiazolyl][3-nitro-4-(2-methyl-1-pyrrolidinyl)phenyl]methanone]"
7.74,6.30,5.46,5.46,"CN1CCN(c2ccc(Nc3nc(N)c(C(=O)c4ccc5c(c4)OCO5)s3)cc2)CC1 [Example 25, [4-Amino-2-[[4-(4-methyl-1-piperazinyl)phenyl]amino]-5-thiazolyl](1,3-benzodioxol-5-yl)methanone]"
7.23,5.05,5.25,5.21,"CN1CCN(c2ccc(Nc3nc(N)c(C(=O)c4ccc(N5CCCC5)cc4)s3)cc2)CC1 [Example 26, [4-Amino-2-[[4-(4-methyl-1-piperazinyl)phenyl]amino]-5-thiazolyl][4-(1-pyrrolidinyl)phenyl]methanone]"
8.40,4.70,5.04,5.03,"CN1CCN(c2ccc(Nc3nc(N)c(C(=O)c4ccc(N5CCCCC5)cc4)s3)cc2)CC1 [Example 27, [4-Amino-2-[[4-(4-methyl-1-piperazinyl)phenyl]amino]-5-thiazolyl][4-(1-piperidinyl)phenyl]methanone]"
6.99,4.80,5.02,5.02,"CN1CCN(c2ccc(Nc3nc(N)c(C(=O)c4ccc5c(c4)OCCCO5)s3)cc2)CC1 [Example 29, [4-Amino-2-[[4-(4-methyl-1-piperazinyl)phenyl]amino]-5-thiazolyl](3,4-dihydro-2H-1,5-benzodioxepin-7-yl)methanone]"
7.28,5.62,5.44,5.64,"CN1CCN(c2ccc(Nc3nc(N)c(C(=O)c4ccc(O)cc4)s3)cc2)CC1 [Example 30, [4-Amino-2-[[4-(4-methyl-1-piperazinyl)phenyl]amino]-5-thiazolyl]-(4-hydroxyphenyl)methanone]"
8.10,5.21,5.04,5.19,"CCN(CC)c1ccc(C(=O)c2sc(Nc3ccc(N4CCN(C)CC4)cc3)nc2N)cc1 [Example 33, [4-Amino-2-[[4-(4-methyl-1-piperazinyl)phenyl]amino]-5-thiazolyl][4-(diethylamino)phenyl]methanone]"
8.10,5.96,5.74,5.74,"COc1ccc(C(=O)c2sc(Nc3ccc(N4CCN(C)CC4)cc3)nc2N)cc1F [Example 35, [4-Amino-2-[[4-(4-methyl-1-piperazinyl)phenyl]amino]-5-thiazolyl](3-fluoro-4-methoxyphenyl)methanone]"
7.60,5.68,5.55,5.27,"COc1cccc(C(=O)c2sc(Nc3ccc(N4CCN(C)CC4)cc3)nc2N)c1 [Example 36, [4-Amino-2-[[4-(4-methyl-1-piperazinyl)phenyl]amino]-5-thiazolyl](3-methoxyphenyl)methanone]"
7.14,5.00,5.18,5.20,"CN1CCN(c2ccc(Nc3nc(N)c(C(=O)c4ccc(Cl)c(Cl)c4)s3)cc2)CC1 [Example 37, [4-Amino-2-[[4-(4-methyl-1-piperazinyl)phenyl]amino]-5-thiazolyl](3,4-dichlorophenyl)methanone]"
7.68,5.55,5.44,5.10,"COc1cc(OC)cc(C(=O)c2sc(Nc3ccc(N4CCN(C)CC4)c(F)c3)nc2N)c1 [Example 39, [4-Amino-2-[[3-fluoro-4-(4-methyl-1-piperazinyl)phenyl]amino]-5-thiazolyl](3,5-dimethoxyphenyl)methanone]"
